For 20 molecules, IC50 and Ki results are on record in ChEMBL document CHEMBL1909046, “DrugMatrix in vitro pharmacology data”.

The nature of assay [1]: DRUGMATRIX: Nicotinic Acetylcholine radioligand binding (ligand: [125I] Epibatidine). The assay is classed as cell membranes, Membrane. Conditions: imr-32; Not Active = under 50% inhibition at 10 µM.
For assay [2], the target named is T1, Cysteinyl leukotriene receptor 1 (Homo sapiens, UniProt Q9Y271). Further: in other assays of this panel Not Active means under 50% inhibition at 10 µM.
T1 sequence (Q9Y271 whole entry): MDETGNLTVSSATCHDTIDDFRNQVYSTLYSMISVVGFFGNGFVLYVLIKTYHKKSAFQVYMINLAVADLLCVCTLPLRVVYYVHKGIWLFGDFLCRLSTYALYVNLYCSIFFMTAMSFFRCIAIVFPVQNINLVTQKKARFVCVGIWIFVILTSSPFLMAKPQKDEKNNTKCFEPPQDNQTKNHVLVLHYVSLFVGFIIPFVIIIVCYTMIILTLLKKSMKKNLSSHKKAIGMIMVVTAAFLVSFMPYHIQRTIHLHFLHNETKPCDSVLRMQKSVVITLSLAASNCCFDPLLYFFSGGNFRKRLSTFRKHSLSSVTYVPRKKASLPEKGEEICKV
The format is cell membranes, Membrane. Conditions: cho-k1.

Assay [3] deals with Epidermal growth factor receptor (Homo sapiens, UniProt P00533). Put plainly: DRUGMATRIX: Protein Tyrosine Kinase, EGF Receptor enzyme inhibition (substrate: Poly(Glu:Tyr)). The assay is classed as cell-based, Insect cells. Conditions: Not Active = under 50% inhibition at 10 µM.
Chain of Epidermal growth factor receptor (P00533 whole entry): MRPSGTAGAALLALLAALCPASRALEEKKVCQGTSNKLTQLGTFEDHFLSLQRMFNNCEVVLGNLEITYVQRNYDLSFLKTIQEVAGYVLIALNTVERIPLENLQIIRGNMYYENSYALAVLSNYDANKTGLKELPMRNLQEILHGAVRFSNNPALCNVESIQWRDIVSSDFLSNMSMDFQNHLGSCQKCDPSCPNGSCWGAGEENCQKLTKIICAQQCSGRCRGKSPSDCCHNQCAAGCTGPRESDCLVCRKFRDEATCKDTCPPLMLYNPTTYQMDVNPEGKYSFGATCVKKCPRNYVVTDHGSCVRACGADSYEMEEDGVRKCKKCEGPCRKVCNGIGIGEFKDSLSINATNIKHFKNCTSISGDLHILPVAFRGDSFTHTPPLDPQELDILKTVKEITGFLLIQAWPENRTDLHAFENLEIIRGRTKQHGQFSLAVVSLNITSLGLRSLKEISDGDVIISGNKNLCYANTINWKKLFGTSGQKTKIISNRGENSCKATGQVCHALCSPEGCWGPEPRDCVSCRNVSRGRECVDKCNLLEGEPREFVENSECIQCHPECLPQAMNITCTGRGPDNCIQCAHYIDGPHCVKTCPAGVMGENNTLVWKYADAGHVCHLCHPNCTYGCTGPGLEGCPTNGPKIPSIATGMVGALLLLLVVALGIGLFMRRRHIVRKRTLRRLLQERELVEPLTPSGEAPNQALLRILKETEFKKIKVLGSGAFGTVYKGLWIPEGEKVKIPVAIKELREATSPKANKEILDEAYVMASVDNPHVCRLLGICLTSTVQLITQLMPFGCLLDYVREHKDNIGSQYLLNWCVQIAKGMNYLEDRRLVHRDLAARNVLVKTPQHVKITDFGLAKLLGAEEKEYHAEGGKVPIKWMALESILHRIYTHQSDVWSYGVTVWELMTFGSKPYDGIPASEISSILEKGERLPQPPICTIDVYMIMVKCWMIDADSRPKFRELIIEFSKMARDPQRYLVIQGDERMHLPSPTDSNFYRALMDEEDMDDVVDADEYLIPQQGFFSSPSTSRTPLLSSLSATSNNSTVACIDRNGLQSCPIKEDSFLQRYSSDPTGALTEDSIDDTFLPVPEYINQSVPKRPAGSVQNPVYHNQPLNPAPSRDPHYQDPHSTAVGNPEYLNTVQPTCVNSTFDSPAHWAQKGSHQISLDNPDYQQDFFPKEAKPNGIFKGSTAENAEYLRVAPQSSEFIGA
Assay [4] has as its target Acetylcholinesterase (Homo sapiens, UniProt P22303). Put plainly: DRUGMATRIX: Acetylcholinesterase enzyme inhibition (substrate: acetylthiocholine). The assay is classed as cell-based, HEK293. Conditions: hek293; Not Active = under 50% inhibition at 10 µM.
Assay [5] concerns the target Vascular endothelial growth factor receptor 1 (Homo sapiens, UniProt P17948). Put plainly: biochemical. The assay is classed as cell-based, HUVEC. Conditions: huvec. Further: in other assays of this panel Not Active means under 50% inhibition at 10 µM.
Assay [6] deals with T2, Neutrophil elastase (Homo sapiens, UniProt P08246).
T2 sequence (P08246 whole entry): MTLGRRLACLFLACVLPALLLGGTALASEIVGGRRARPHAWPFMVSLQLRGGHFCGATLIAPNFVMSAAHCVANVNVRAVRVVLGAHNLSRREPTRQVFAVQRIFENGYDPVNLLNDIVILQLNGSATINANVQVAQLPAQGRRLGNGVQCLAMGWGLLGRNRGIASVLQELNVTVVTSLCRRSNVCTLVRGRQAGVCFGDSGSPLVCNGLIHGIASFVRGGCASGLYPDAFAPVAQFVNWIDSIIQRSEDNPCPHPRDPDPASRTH
The format is tissue-based.

For assay [7], the target named is Histamine H2 receptor (Homo sapiens, UniProt P25021). The assay is classed as cell membranes, CHO-K1, Membrane. Conditions: cho-k1. Further: in other assays of this panel Not Active means under 50% inhibition at 10 µM.
Chain of Histamine H2 receptor (P25021 whole entry): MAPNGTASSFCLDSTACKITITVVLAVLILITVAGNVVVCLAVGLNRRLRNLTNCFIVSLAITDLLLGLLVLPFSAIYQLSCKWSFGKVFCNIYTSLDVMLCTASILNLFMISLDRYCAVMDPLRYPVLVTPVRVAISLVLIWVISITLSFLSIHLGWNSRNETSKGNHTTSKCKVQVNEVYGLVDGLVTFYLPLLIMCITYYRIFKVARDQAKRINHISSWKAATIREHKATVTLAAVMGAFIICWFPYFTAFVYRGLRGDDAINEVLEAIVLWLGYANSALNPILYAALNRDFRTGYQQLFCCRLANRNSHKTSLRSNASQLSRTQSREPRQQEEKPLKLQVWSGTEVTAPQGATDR

Chain of Vascular endothelial growth factor receptor 1 (P17948 whole entry): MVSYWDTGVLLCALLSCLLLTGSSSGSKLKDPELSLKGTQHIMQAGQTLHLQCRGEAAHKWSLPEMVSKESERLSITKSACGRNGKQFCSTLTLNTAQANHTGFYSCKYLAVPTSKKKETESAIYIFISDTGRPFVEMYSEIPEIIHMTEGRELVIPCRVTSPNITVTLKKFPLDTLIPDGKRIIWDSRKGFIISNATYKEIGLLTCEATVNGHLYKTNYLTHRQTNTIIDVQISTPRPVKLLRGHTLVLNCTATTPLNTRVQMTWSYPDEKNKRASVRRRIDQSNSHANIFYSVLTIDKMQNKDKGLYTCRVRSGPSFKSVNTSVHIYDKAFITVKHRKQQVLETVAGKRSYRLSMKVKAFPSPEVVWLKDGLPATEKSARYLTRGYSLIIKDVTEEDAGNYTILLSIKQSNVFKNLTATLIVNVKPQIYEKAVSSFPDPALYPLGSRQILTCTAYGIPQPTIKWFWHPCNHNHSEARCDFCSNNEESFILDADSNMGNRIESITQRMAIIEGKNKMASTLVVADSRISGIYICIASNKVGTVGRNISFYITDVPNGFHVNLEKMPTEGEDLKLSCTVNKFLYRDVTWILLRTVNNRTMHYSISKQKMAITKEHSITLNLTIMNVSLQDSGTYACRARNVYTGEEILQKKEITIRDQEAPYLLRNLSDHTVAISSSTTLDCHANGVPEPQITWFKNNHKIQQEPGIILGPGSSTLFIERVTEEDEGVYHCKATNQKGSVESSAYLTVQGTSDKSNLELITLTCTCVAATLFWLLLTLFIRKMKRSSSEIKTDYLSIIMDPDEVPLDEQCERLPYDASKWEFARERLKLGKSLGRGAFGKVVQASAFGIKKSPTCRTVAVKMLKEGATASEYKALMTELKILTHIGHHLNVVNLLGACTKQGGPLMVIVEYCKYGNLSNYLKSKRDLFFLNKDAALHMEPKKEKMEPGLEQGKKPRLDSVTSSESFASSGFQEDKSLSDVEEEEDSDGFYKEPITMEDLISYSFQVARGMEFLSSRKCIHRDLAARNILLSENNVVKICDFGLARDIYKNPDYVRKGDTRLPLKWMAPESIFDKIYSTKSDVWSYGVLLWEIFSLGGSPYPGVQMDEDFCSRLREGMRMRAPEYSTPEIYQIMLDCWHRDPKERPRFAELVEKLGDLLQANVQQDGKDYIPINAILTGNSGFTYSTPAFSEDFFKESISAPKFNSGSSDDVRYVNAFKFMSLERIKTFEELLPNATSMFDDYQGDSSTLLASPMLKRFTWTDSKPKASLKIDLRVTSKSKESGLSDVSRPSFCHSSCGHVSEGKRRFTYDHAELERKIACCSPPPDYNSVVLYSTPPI
Chain of Acetylcholinesterase (P22303 whole entry): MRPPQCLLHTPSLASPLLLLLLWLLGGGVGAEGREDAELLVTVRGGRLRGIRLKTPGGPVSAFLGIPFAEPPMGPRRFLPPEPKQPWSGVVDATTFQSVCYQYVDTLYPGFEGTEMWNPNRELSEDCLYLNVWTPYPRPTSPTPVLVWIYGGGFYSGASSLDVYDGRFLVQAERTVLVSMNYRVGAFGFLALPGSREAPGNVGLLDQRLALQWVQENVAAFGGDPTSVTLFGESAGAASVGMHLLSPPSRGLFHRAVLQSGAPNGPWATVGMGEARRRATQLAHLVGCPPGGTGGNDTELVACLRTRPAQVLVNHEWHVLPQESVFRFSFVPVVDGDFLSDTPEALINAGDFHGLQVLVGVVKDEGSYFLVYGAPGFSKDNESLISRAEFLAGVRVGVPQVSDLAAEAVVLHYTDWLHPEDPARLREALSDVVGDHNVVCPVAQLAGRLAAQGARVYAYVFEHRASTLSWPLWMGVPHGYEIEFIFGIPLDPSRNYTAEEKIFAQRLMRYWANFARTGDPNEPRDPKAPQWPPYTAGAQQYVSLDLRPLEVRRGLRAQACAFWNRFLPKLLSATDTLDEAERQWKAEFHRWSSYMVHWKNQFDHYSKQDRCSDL

Broadly, the IC50 is the concentration that inhibits the measured activity by half. As for `CCOC(=O)n1ccn(C)c1=S` [CARBIMAZOLE], the IC50 result in assay [1], in assay [2], in assay [3] (insect cells), in assay [4], in assay [5] and in assay [6] was “Not Active” each time. Further, the half-maximal inhibitory concentration (IC50) entry in assay [7] was “Not Active”. Besides, the Ki result in assay [1] is recorded as “Not Active”.

As for `Oc1ccccc1O` [CATECHOL], the concentration for half-maximal inhibition (IC50) result was “Not Active” in assay [1]; “Not Active” in assay [2]; 26 µM in assay [3] (read-out: IC50); “Not Active” in assay [4]; “Not Active” in assay [5]; “Not Active” in assay [6]. In assay [7], the IC50 entry is recorded as “Not Active”. In addition, the Ki result in assay [1] is listed as “Not Active”.

Regarding `CO[C@@]1(NC(=O)CSCC#N)C(=O)N2C(C(=O)O)=C(CSc3nnnn3C)CS[C@@H]21` [CEFMETAZOLE], the concentration for half-maximal inhibition (IC50) result in assay [1], in assay [2], in assay [3] (insect cells), in assay [4], in assay [5] and in assay [6] was “Not Active” throughout. Besides, the IC50 result in assay [7] is reported as “Not Active”. In addition, in assay [1], the Ki result is “Not Active”.

On to `CN(C(=O)CCCOc1ccc2[nH]c(=O)ccc2c1)C1CCCCC1` [CILOSTAMIDE], for which the IC50 entry in assay [1], in assay [2], in assay [3] (insect cells), in assay [4], in assay [5] and in assay [6] was “Not Active” throughout. Besides, in assay [7], the IC50 entry was “Not Active”. The Ki result in assay [1] is listed as “Not Active”.

For the molecule `CC(C)(Oc1ccc(C2CC2(Cl)Cl)cc1)C(=O)O` (stereo not given) [CIPROFIBRATE], the 50% inhibitory concentration (IC50) result in assay [1], in assay [2], in assay [3] (insect cells), in assay [4], in assay [5] and in assay [6] was “Not Active” each time. For the same molecule, in assay [7], the concentration for half-maximal inhibition (IC50) result is recorded as “Not Active”. Further, the Ki entry in assay [1] is “Not Active”.

For `Nc1nc(Cl)nc2c1ncn2[C@H]1C[C@H](O)[C@@H](CO)O1` [CLADRIBINE], the IC50 entry in assay [1], in assay [2], in assay [3] (insect cells), in assay [4], in assay [5] and in assay [6] was “Not Active” each time. Besides, the IC50 entry in assay [7] was “Not Active”. Further, in assay [1], the Ki result was “Not Active”.

Take `CC[C@H]1OC(=O)[C@H](C)[C@@H](O[C@H]2C[C@@](C)(OC)[C@@H](O)[C@H](C)O2)[C@H](C)[C@@H](O[C@@H]2O[C@H](C)C[C@H](N(C)C)[C@H]2O)[C@](C)(OC)C[C@@H](C)C(=O)[C@H](C)[C@@H](O)[C@]1(C)O` [CLARITHROMYCIN]: the IC50 entry in assay [1], in assay [2], in assay [3] (insect cells), in assay [4], in assay [5] and in assay [6] was “Not Active” throughout. Also, the IC50 result in assay [7] is “Not Active”. Moreover, the Ki result in assay [1] is on record as “Not Active”.

On to `CCC[C@@H]1C[C@@H](C(=O)N[C@@H]([C@H]2O[C@H](SC)[C@H](O)[C@@H](O)[C@H]2O)[C@H](C)Cl)N(C)C1` [CLINDAMYCIN], for which the IC50 result in assay [1], in assay [2], in assay [3] (insect cells), in assay [4], in assay [5] and in assay [6] was “Not Active” each time. Besides, in assay [7], the IC50 result is “Not Active”. Besides, the Ki entry in assay [1] is given as “Not Active”.

Regarding `O=C(O)c1cc(=O)c2c(OCC(O)COc3cccc4oc(C(=O)O)cc(=O)c34)cccc2o1` [CROMOLYN], the IC50 entry in assay [1], in assay [2], in assay [3] (insect cells), in assay [4], in assay [5] and in assay [6] was “Not Active” each time. Further, the IC50 entry in assay [7] is recorded as “Not Active”. The Ki result in assay [1] was “Not Active”.

As for `O=P1(N(CCCl)CCCl)NCCCO1` (stereo not given) [CYCLOPHOSPHAMIDE ANHYDROUS], the IC50 result in assay [1], in assay [2], in assay [3] (insect cells), in assay [4], in assay [5] and in assay [6] was “Not Active” in each case. In assay [7], the IC50 result was “Not Active”. In addition, the Ki entry in assay [1] was “Not Active”.

Turning to `CC(=O)O[C@]1(C(C)=O)CC[C@H]2[C@@H]3C=C(Cl)C4=CC(=O)[C@@H]5C[C@@H]5[C@]4(C)[C@H]3CC[C@@]21C` [CYPROTERONE ACETATE], the IC50 result in assay [1], in assay [2], in assay [3] (insect cells), in assay [4], in assay [5] and in assay [6] was “Not Active” each time. The IC50 result in assay [7] is “Not Active”. Besides, the Ki result in assay [1] is “Not Active”.

`Nc1nc(N)nc(NC2CC2)n1` [CYROMAZINE]: the IC50 result in assay [1], in assay [2], in assay [3] (insect cells), in assay [4], in assay [5] and in assay [6] was “Not Active” throughout. Further, in assay [7], the IC50 entry is given as “Not Active”. The Ki entry in assay [1] was “Not Active”.

Turning to `C#C[C@]1(O)CC[C@H]2[C@@H]3CCC4=Cc5oncc5C[C@]4(C)[C@H]3CC[C@@]21C` [DANAZOL], the IC50 entry in assay [1], in assay [2], in assay [3] (insect cells), in assay [4], in assay [5] and in assay [6] was “Not Active” each time. In addition, in assay [7], the IC50 result is listed as “Not Active”. The Ki entry in assay [1] is “Not Active”.

In the case of `CCN[C@@H](C)Cc1cccc(C(F)(F)F)c1` [DEXFENFLURAMINE], the IC50 entry in assay [1], in assay [2], in assay [3] (insect cells), in assay [4], in assay [5] and in assay [6] was “Not Active” each time. Further, the 50% inhibitory concentration (IC50) result in assay [7] is recorded as “Not Active”. The Ki result in assay [1] is on record as “Not Active”.

On to `C[C@H](C(=O)O)c1cccc(C(=O)c2ccccc2)c1` [DEXKETOPROFEN], for which the IC50 entry in assay [1], in assay [2], in assay [3] (insect cells), in assay [4], in assay [5] and in assay [6] was “Not Active” throughout. For the same molecule, the IC50 result in assay [7] was “Not Active”. For the same molecule, in assay [1], the Ki entry was “Not Active”.

Regarding `CN1C(=O)CN=C(c2ccccc2)c2cc(Cl)ccc21` [DIAZEPAM], the IC50 result in assay [1], in assay [2], in assay [3] (insect cells), in assay [4], in assay [5] and in assay [6] was “Not Active” throughout. Moreover, the IC50 result in assay [7] is recorded as “Not Active”. In addition, the Ki entry in assay [1] is recorded as “Not Active”.

As to `CN1C[C@H](C(=O)N[C@]2(C)O[C@@]3(O)[C@@H]4CCCN4C(=O)[C@H](Cc4ccccc4)N3C2=O)C[C@@H]2c3cccc4[nH]cc(c34)C[C@H]21` [DIHYDROERGOTAMINE], the IC50 result in assay [1], in assay [2], in assay [3] (insect cells), in assay [4], in assay [5] and in assay [6] was “Not Active” in each case. Besides, the IC50 entry in assay [7] is “Not Active”. For the same molecule, the Ki entry in assay [1] is “Not Active”.

In the case of `Cc1c(N(C)CS(=O)(=O)[O-])c(=O)n(-c2ccccc2)n1C.[Na+]` [DIPYRONE SODIUM], the half-maximal inhibitory concentration (IC50) entry in assay [1], in assay [2], in assay [3] (insect cells), in assay [4], in assay [5] and in assay [6] was “Not Active” in each case. Further, the concentration for half-maximal inhibition (IC50) entry in assay [7] is listed as “Not Active”. Besides, in assay [1], the Ki result is listed as “Not Active”.

In the case of `CC(CCc1ccc(O)cc1)NCCc1ccc(O)c(O)c1` (stereo not given) [DOBUTAMINE], the IC50 result in assay [1] was “Not Active”; in assay [2] it was “Not Active”; in assay [3] (read-out: IC50) it was 5.55 µM; in assay [4], “Not Active”; in assay [5], “Not Active”; in assay [6] it was “Not Active”. Moreover, the IC50 entry in assay [7] is on record as “Not Active”. In assay [1], the Ki result is “Not Active”.

As to `CCn1cc(C(=O)O)c(=O)c2cc(F)c(N3CCNCC3)nc21` [ENOXACIN], the half-inhibitory concentration (IC50) result in assay [1], in assay [2], in assay [3] (insect cells), in assay [4], in assay [5] and in assay [6] was “Not Active” throughout. For the same molecule, the 50% inhibitory concentration (IC50) entry in assay [7] is reported as “Not Active”. In addition, the Ki result in assay [1] is given as “Not Active”.
